Test results reported in patent publication US20250186408A1, “TREATMENT OF PHARMACORESISTANT EPILEPSY” (Katholieke Universiteit Leuven, priority 2021, published 2025).
≈ marks a conversion by molar mass, not a printed value. Like-named read-outs stand apart in the source and are kept apart here.

Key:
in vivo = settings: male, NMRI, mouse, ip, 300 mg/kg
Procedure: After the treatment period, blood samples were drawn from the tail veins, collected in Greiner MiniCollect K2EDTA tubes, and centrifuged twice for 5 min at 15,000 g to obtain plasma samples. Three volumes of acetonitrile were added to one volume of plasma to precipitate out the proteins. The samples were vortexed for 20 s and placed on ice. Immediately after, they were centrifuged at 5,000 g for 10 min and again at 10,000 g for 2 min. The resulting supernatants were transferred to Eppendorf tubes and centrifuged for 2 min at 10,000 g. Finally, the supernatants were collected for analysis by LC-MS/MS to determine the targeted compound concentration. Percentage recovery was determined as follows: known concentrations of the compound were spiked into the blank plasma and acetonitrile was added (3:1 ratio) to precipitate out the proteins. Samples were vortexed for 20 s and placed on ice. The resulting supernatants were isolated via centrifugation as described above. The targeted compounds were identified using LC-MS/MS to detect their characteristic ions. Plasma concentrations at each point were plotted as a function of time.
Brain samples were collected at the same time points as described for blood samples. Male NMRI mice were overdosed with dolethal via i.p. administration. Mice were perfused with 0.9% saline and brains were collected in Eppendorf tubes. Brains were weighed, whereafter 400 μL of acetonitrile was added to the samples. […] Homogenized samples were centrifuged at 5,000 g for 10 min and again at 10,000 g for 2 min. The resulting supernatants were transferred to Eppendorf tubes and centrifuged for 2 min at 10,000 g. Finally, the supernatants were collected for analysis by LC-MS/MS to determine the targeted compound concentration in the brain tissue.
The compound concentrations in mouse plasma and brain were determined by LC-MS/MS.

DRD1 = DRD1 (Homo sapiens, UniProt P21728); test: cAMP DRD1 Agonist; settings: for Emax: read-out: Max response
Procedure: (§1) In vitro pharmacological profiling of compounds was done against 78 functional assays for 47 common off-targets (30) by Eurofins DiscoverX Corporation (Fremont, CA, USA) using their SAFETYscan E/IC50 ELECT service (Cat Ref 87-1003DR, Safety47 Panel Dose Response). […] Compounds were tested in a range of 10 concentrations, following a 3-fold serial dilution, starting from 10 μM. The assays were performed utilizing the PathHunter enzyme fragment complementation (EFC) technology, FLIPR®-based cellular screening assays, and KINOMEscan kinase binding assays.
(§2) cAMP Hunter cell lines were expanded from freezer stocks. Prior to testing, cells were seeded in a total volume of 20 μL into white walled 384-well microplates and incubated at 37° C. cAMP modulation was determined using the DiscoverX HitHunter cAMP XS+ assay. For Gs agonist determination, cells were incubated with sample to induce response. For Gi agonist determination, cells were incubated with sample in the presence of EC80 forskolin to induce response. For both conditions, media was aspirated from cells and replaced with 15 μL 2:1 HBSS/10 mM HEPES:cAMP XS+ Ab reagent. Intermediate dilution of sample stocks was performed to generate 4× sample in assay buffer (containing 4×EC80 forskolin in the case of antagonist determination). 5 μL of 4× sample was added to cells and incubated at 37° C. or room temperature (RT) for 30 or 60 min. Final assay vehicle concentration was 1%. For antagonist determination, cells were pre-incubated with sample followed by agonist challenge at the EC80 concentration. Media was aspirated from cells and replaced with 10 μL 1:1 HBSS/HEPES:cAMP XS+ Ab reagent. 5 μL of 4× compound was added to the cells and incubated at 37° C. or RT for 30 min. 5 μL of 4×EC80 agonist was added to the cells and incubated at 37° C. or RT for 30 or 60 min. For Gi coupled GPCRs, EC80 forskolin was included. […] Microplates were read following signal generation with a PerkinElmer Envision™ instrument for chemiluminescent signal detection. Compound activity was analyzed using CBIS data analysis suite (ChemInnovation, CA).

ADORA2A = ADORA2A (Homo sapiens, UniProt P29274); test: Calcium Flux ADORA2A Antagonist; format: cell-based; settings: for Emax: read-out: Max response; for IC50: read-out: RC50, result type IC50
Procedure: (≤0.2% DMSO concentration). Assays were performed in 1× dye loading buffer consisting of 1× Dye (DiscoverX, Calcium No Wash^PLUS kit, Catalog No. 90-0091), 1× Additive A and 2.5 mM Probenecid in HBSS/20 mM HEPES. Probenecid was prepared fresh. Prior to testing, media was aspirated from cells and replaced with 25 μL dye loading buffer. Cells were incubated for 45 min at 37° C. and then 20 min at RT. For agonist determination, 25 μL of 2× compound in HBSS/20 mM HEPES was added using a FLIPR Tetra (MDS). […] 25 μL of 2× sample was added and cells were incubated for 30 min at RT in the dark to equilibrate plate temperature. After incubation, antagonist determination was initiated by addition of 25 μL of 1× compound with 3×EC80 agonist using FLIPR. For both agonist and antagonist formats, activity was measure on a FLIPR Tetra (MDS). Calcium mobilization was monitored for 2 min with a 5 sec baseline read.
FLIPR read—Area under the curve, was calculated for the entire 2 min read.

HTR2A = HTR2A (Homo sapiens, UniProt P28223); test: Calcium Flux HTR2A Antagonist; settings: for Emax: read-out: Max response
Procedure: as §1
Prior to testing, cells (10,000 cells/well) were expanded from freezer stocks and seeded into a total volume of 50 μL into black walled, clear-bottom, Poly-D-lysine coated 384-well microplates and incubated at 37° C. […] Assays were performed in 1× dye loading buffer consisting of 1× Dye (DiscoverX, Calcium No Wash^PLUS kit, Catalog No. 90-0091), 1× Additive A and 2.5 mM Probenecid in HBSS/20 mM HEPES. Probenecid was prepared fresh. Prior to testing, media was aspirated from cells and replaced with 25 μL dye loading buffer. Cells were incubated for 45 min at 37° C. and then 20 min at RT. For agonist determination, 25 μL of 2× compound in HBSS/20 mM HEPES was added using a FLIPR Tetra (MDS). For antagonist determination, cells were pre-incubated with sample followed by agonist challenge at the EC80 concentration. 25 μL of 2× sample was added and cells were incubated for 30 min at RT in the dark to equilibrate plate temperature. After incubation, antagonist determination was initiated by addition of 25 μL of 1× compound with 3×EC80 agonist using FLIPR. For both agonist and antagonist formats, activity was measure on a FLIPR Tetra (MDS). Calcium mobilization was monitored for 2 min with a 5 sec baseline read.
FLIPR read—Area under the curve, was calculated for the entire 2 min read. Compound activity was analysed using CBIS data analysis suite (ChemInnovation, CA).

CAV1.2 = CAV1.2 (Homo sapiens, UniProt Q13936); test: Ion Channel CAV1.2 Blocker; format: cell-based
OPRK1 = OPRK1 (Homo sapiens, UniProt P41145); test: cAMP OPRK1 Agonist; settings: for Emax: read-out: Max response
Procedure: (§3) In vitro pharmacological profiling of compounds was done against 78 functional assays for 47 common off-targets (30) by Eurofins DiscoverX Corporation (Fremont, CA, USA) using their SAFETYscan E/IC50 ELECT service (Cat Ref 87-1003DR, Safety47 Panel Dose Response). […] Compounds were tested in a range of 10 concentrations, following a 3-fold serial dilution, starting from 10 μM.
as §2

Aqueous solubility = format: physicochemical
Text: In vitro ADME profiling of compounds was done by Eurofins Panlabs Inc (St Charles, MO, USA) using their ADME-Tox service (Cat Ref P375, Tier 1 ADME Panel). […] (28). The atom-based log P calculation method, called OsirisP, uses as an increment system and adds contributions of every atom based on its atom type. The prediction engine distinguishes a total of 368 atom types and was optimized using a training set of more than 5000 molecules with experimentally determined log P values. The free prediction engine has proven to outperform many alternative calculation methods (29).
SGF, SIF and PBS buffers were prepared as follows: 34.2 mM NaCl, 84.7 mM HCl, 3.2 g/L pepsin (pH 2) for SGF, 50 mM KH2PO4, 38 mM NaOH, 10 g/L pancreatin (pH 7.5) for SIF and 137 mM NaCl, 2.7 mM KCl, 8.1 mM Na2HPO4 and 1.5 mM KH2PO4 (pH 7.4) for PBS. Test compounds were prepared at 200 μM concentrations in the corresponding buffer from a 10 mM stock solution (final solvent concentration of 2% DMSO). Buffer samples were mixed thoroughly followed by a 24 h incubation at room temperature. Samples were centrifuged and the supernatant was used for HPLC analysis. A calibration standard of the test compound was prepared at 200 μM in methanol/water (3:2 v/v) from the stock solution on the day of the analysis. Metoprolol, rifampicin, ketoconazole, phenytoin, haloperidol, simvastatin, diethylstilbestrol and tamoxifen were included in each assay. Aqueous solubility (μM) was determined by comparing peak areas.

ADRB1 = ADRB1 (Homo sapiens, UniProt P08588); test: cAMP ADRB1 Agonist; format: cell-based; settings: for Emax: read-out: Max response
Procedure: cAMP Hunter cell lines were expanded from freezer stocks. […] For Gi agonist determination, cells were incubated with sample in the presence of EC80 forskolin to induce response. For both conditions, media was aspirated from cells and replaced with 15 μL 2:1 HBSS/10 mM HEPES:cAMP XS+ Ab reagent. […] 5 μL of 4× sample was added to cells and incubated at 37° C. or room temperature (RT) for 30 or 60 min. Final assay vehicle concentration was 1%. […] Media was aspirated from cells and replaced with 10 μL 1:1 HBSS/HEPES:cAMP XS+ Ab reagent. […] For Gi coupled GPCRs, EC80 forskolin was included. […] Compound activity was analyzed using CBIS data analysis suite (ChemInnovation, CA).

CHRM2 = biological target: T1, CHRM2 (Homo sapiens, UniProt P08172); test: cAMP CHRM2 Antagonist; settings: for Emax: read-out: Max response
T1 sequence (P08172 1-466): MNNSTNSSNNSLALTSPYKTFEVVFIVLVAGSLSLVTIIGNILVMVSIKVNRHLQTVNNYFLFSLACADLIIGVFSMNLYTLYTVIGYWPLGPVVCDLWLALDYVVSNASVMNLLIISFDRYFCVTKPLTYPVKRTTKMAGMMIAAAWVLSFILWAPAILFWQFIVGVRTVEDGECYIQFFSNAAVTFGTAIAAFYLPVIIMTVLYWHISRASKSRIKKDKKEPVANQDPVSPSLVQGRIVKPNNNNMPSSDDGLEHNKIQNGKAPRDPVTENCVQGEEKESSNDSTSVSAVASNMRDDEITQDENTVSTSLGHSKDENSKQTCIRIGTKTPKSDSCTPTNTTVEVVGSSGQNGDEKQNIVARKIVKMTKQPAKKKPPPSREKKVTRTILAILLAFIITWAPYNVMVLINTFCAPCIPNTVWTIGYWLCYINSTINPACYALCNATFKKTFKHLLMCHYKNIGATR
Procedure: as §3
cAMP Hunter cell lines were expanded from freezer stocks. Prior to testing, cells were seeded in a total volume of 20 μL into white walled 384-well microplates and incubated at 37° C. cAMP modulation was determined using the DiscoverX HitHunter cAMP XS+ assay. For Gs agonist determination, cells were incubated with sample to induce response. For Gi agonist determination, cells were incubated with sample in the presence of EC80 forskolin to induce response. For both conditions, media was aspirated from cells and replaced with 15 μL 2:1 HBSS/10 mM HEPES:cAMP XS+ Ab reagent. Intermediate dilution of sample stocks was performed to generate 4× sample in assay buffer (containing 4×EC80 forskolin in the case of antagonist determination). 5 μL of 4× sample was added to cells and incubated at 37° C. or room temperature (RT) for 30 or 60 min. Final assay vehicle concentration was 1%. For antagonist determination, cells were pre-incubated with sample followed by agonist challenge at the EC80 concentration. Media was aspirated from cells and replaced with 10 μL 1:1 HBSS/HEPES:cAMP XS+ Ab reagent. 5 μL of 4× compound was added to the cells and incubated at 37° C. or RT for 30 min. 5 μL of 4×EC80 agonist was added to the cells and incubated at 37° C. or RT for 30 or 60 min. For Gi coupled GPCRs, EC80 forskolin was included. […] Microplates were read following signal generation with a PerkinElmer Envision™ instrument for chemiluminescent signal detection. Compound activity was analyzed using CBIS data analysis suite (ChemInnovation, CA). For Gs agonist mode assays, percentage activity was calculated using the following equation:

[1] = Calcium Flux ADORA2A Antagonist
[2] = aqueous buffer, kinetic from dmso stock, PBS pH 7.4, tested at 200 μM, 24 h room temperature, read-out: aqueous solubility PBS (pH 7.4)
[3] = fassgf or other biorelevant, kinetic from dmso stock, simulated intestinal fluid pH 7.5, tested at 200 μM, read-out: aqueous solubility simulated intestinal fluid
[4] = kinetic from dmso stock, simulated gastric fluid pH 2, tested at 200 μM, read-out: aqueous solubility simulated gastric fluid

Sequence of HTR2A (P28223 whole entry): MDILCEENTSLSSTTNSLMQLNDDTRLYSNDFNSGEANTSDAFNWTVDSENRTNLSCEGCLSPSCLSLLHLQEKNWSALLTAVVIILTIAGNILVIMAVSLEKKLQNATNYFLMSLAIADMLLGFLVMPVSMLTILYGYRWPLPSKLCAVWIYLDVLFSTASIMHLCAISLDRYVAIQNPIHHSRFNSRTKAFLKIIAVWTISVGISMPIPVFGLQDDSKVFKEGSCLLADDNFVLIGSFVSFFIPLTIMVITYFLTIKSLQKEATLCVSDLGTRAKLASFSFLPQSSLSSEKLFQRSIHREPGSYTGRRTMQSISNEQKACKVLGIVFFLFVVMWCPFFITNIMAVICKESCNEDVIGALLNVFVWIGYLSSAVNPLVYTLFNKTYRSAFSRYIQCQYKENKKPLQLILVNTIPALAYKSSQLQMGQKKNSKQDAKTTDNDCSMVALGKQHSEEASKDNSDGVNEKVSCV
Sequence of DRD1 (P21728 whole entry): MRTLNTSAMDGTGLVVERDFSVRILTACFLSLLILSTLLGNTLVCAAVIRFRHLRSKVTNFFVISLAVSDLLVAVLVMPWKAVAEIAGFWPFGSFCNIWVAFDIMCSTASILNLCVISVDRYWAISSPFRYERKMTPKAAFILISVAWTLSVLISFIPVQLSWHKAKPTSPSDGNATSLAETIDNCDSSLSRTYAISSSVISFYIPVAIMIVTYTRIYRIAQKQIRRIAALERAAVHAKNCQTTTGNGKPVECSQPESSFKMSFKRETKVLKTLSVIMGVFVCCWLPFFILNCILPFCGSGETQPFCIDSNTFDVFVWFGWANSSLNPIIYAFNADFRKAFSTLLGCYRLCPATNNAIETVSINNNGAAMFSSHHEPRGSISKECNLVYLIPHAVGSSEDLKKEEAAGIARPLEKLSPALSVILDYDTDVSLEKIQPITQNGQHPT
Sequence of CAV1.2 (Q13936 whole entry): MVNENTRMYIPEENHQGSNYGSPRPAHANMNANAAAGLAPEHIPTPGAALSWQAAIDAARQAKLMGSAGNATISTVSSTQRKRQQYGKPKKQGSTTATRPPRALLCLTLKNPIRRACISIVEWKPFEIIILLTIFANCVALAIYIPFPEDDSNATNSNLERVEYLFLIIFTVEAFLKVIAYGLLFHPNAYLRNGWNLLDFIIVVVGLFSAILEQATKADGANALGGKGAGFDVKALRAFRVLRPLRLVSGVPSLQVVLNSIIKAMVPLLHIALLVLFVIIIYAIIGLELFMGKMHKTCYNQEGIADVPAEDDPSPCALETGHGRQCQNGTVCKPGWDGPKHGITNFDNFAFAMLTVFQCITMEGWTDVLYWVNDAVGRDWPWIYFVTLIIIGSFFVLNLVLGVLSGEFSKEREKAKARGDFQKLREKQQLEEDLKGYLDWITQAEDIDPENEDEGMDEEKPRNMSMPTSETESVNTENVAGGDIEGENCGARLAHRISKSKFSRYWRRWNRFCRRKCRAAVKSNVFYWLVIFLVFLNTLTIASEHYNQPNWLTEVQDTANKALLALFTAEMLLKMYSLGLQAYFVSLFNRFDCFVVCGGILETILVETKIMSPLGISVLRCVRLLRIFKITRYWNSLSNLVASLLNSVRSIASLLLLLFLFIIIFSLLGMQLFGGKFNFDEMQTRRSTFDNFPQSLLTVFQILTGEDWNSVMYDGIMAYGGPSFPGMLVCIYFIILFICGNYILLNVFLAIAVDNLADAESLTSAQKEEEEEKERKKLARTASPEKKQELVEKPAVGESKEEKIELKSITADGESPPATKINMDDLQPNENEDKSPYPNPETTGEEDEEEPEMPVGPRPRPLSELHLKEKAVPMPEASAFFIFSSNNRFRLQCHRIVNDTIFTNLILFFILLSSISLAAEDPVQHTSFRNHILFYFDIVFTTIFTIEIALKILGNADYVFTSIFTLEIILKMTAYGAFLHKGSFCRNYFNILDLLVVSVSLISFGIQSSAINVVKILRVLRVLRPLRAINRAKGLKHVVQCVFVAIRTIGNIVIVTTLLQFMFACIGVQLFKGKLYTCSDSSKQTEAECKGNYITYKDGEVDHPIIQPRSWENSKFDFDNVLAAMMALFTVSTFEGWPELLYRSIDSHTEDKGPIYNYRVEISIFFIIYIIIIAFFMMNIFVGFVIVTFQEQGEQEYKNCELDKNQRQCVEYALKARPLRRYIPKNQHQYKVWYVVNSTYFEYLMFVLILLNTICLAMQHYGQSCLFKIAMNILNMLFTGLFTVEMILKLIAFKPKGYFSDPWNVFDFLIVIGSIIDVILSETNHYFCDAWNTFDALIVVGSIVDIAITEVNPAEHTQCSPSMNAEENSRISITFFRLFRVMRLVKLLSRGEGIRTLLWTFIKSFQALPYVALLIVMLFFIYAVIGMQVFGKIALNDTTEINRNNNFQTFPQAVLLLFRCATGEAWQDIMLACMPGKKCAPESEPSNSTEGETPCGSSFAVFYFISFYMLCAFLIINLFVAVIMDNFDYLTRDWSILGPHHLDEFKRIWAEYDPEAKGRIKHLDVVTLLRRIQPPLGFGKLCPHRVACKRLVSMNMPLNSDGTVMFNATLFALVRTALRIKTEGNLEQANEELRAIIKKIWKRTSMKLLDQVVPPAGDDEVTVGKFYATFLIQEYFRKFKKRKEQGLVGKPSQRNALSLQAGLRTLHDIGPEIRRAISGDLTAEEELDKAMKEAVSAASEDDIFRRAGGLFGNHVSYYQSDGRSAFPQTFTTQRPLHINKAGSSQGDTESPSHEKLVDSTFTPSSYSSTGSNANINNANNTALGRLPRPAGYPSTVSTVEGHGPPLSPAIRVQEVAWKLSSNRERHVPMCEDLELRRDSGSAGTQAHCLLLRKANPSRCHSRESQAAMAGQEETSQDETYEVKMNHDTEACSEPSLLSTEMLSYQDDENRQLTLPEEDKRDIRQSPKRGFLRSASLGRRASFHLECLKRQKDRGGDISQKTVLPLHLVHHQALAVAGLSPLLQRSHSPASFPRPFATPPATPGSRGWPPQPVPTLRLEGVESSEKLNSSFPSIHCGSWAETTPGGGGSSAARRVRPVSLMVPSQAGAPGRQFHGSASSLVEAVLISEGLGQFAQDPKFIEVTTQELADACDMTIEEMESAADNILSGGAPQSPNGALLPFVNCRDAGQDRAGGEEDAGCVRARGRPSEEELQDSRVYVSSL
Sequence of CAV1.2 (Q08289 whole entry partner): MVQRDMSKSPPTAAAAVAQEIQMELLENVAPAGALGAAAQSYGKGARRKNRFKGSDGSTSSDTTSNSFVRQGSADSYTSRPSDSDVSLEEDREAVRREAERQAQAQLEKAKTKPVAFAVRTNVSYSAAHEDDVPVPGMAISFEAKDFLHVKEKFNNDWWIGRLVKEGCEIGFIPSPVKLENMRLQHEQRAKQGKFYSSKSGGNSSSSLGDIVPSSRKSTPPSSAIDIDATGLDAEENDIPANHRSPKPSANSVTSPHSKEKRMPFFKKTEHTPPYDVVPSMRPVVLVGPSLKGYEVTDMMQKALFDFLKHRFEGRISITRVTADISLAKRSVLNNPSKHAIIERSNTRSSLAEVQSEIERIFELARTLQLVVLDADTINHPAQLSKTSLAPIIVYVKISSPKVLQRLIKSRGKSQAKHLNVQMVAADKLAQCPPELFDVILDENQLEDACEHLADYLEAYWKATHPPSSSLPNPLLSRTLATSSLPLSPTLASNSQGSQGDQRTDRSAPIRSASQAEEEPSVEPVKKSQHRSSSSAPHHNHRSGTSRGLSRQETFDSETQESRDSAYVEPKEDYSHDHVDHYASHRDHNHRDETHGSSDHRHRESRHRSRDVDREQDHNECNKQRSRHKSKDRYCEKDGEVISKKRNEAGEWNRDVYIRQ
Sequence of CAV1.2 (P54289 25-956 partner limits assumed): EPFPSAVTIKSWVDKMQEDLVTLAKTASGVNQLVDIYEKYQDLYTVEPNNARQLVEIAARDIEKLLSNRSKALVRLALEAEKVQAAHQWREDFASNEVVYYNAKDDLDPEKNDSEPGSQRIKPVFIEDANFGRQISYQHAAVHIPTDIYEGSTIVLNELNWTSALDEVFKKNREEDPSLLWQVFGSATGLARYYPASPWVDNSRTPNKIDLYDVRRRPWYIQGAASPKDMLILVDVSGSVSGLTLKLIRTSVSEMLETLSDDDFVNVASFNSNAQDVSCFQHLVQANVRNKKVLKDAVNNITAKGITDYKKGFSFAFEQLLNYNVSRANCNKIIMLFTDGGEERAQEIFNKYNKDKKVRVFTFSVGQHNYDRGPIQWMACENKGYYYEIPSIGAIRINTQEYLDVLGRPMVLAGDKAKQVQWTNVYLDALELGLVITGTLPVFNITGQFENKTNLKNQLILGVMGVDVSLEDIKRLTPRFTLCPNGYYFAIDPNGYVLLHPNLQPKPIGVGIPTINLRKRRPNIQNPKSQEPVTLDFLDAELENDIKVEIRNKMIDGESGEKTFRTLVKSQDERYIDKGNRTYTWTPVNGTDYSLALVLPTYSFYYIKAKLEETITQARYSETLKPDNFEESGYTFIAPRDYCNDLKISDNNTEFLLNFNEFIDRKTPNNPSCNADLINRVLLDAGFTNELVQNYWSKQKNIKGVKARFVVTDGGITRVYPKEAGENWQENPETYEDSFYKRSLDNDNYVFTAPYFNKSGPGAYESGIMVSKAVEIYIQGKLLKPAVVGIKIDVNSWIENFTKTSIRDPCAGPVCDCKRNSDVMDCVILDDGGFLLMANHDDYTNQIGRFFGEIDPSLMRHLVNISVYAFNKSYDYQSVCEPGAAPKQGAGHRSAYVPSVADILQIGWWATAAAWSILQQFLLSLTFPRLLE
Sequence of CAV1.2 (P54289 957-1103 partner limits assumed): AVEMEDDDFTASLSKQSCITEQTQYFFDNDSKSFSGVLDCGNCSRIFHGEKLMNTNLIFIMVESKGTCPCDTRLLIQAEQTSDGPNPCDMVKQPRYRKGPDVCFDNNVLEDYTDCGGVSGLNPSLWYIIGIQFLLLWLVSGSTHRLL

Row | Compound | Cmax (in vivo; brain) [ng/g] | Cmax (in vivo; plasma) [µM] | EC50 (DRD1) [µM] | Emax (DRD1) [%] | IC50 (ADORA2A; [1]) [µM] | IC50 (HTR2A) [µM] | Emax (HTR2A) [%] | IC50 (CAV1.2) [µM] | EC50 (OPRK1) [µM] | Emax (OPRK1) [%] | solubility at 24 h (Aqueous solubility; [2]) [µM] | solubility at 24 h (Aqueous solubility; [3]) [µM] | solubility at 24 h (Aqueous solubility; [4]) [µM] | IC50 (CHRM2) [µM] | Emax (CHRM2) [%] | other results
1 | Clc1cccc(C#Cc2n[nH]c3ncccc23)c1 [Compound 10.1, 3-((3-chlorophenyl)ethynyl)-1H-pyrazolo[3,4-b]pyridine] | 31000 | 27 | > 10 | 1.3 | > 10 | > 10 | 0 | > 10 | > 10 | 5.4 | < 0.1 | 26.7 (≈ 6.77 µg/mL) | 26.7 (≈ 6.77 µg/mL) | > 10 | 0 | Emax (ADORA2A; [1]): 0%; Emax at 30 min (CAV1.2): 0%; solubility at 24 h (Aqueous solubility; PBS pH 7.4, tested at 200 μM, 24 h room temperature, read-out: aqueous solubility PBS (pH 7.4)): <0.1 µM; Emax (ADRB1; cAMP ADRB1 Agonist): 0%; EC50 (ADRB1; cAMP ADRB1 Agonist, read-out: RC50, result type EC50): > 10 µM
2 | CC(C)(C)c1ccc(C#CC(O)c2ccccc2)cc1 (racemic) [Compound 3.3, rac-3-(4-(tert-butyl)phenyl)-1-phenylprop-2-yn-1-ol] | 96000 | 62 | > 10 | 1.2 | > 10 | > 10 | 0 | > 10 | > 10 | 0 | 17.7 (≈ 4.68 µg/mL) | 102 (≈ 27.1 µg/mL) | 24.5 (≈ 6.48 µg/mL) | 4.3 | 90.1 | Emax (ADORA2A): 0%; Emax at 30 min (CAV1.2; Ion Channel CAV1.2 Blocker, read-out: Max response): 7.2%; EC50 (ADRB1): > 10 µM; Emax (ADRB1): 0.6%
